The target of assay [1] is T1, human NPP3 (Homo sapiens, UniProt O14638).
T1 construct: Soluble and purified human NPP3, prepared as previously described; made in house
T1 sequence (O14638 31-875 limits assumed): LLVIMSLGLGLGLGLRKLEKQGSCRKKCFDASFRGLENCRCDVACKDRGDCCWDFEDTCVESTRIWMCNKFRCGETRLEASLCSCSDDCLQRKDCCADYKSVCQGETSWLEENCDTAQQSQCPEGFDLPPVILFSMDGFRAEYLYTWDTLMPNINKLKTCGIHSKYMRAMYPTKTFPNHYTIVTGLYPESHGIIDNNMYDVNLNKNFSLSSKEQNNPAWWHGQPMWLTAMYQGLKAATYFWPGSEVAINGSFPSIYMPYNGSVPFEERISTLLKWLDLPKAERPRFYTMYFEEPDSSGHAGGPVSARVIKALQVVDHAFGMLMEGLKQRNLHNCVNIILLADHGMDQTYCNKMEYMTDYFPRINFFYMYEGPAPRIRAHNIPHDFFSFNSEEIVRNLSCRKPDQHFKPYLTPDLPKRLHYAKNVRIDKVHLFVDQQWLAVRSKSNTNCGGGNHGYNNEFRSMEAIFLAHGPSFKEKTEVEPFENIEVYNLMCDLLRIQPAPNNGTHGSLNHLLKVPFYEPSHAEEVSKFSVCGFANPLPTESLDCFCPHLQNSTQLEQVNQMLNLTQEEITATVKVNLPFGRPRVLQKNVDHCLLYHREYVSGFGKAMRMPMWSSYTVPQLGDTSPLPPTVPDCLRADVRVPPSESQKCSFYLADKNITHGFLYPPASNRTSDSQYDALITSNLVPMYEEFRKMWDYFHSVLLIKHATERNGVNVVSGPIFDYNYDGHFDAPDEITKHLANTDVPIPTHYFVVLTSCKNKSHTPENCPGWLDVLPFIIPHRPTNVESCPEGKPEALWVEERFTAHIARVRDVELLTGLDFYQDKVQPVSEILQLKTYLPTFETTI
Put plainly: NPP3 colorimetric assay, p-Nph-5'-TMP as substrate. In kind it is biochemical. The note with it: 20 µg/mL (12 µM). As to the method:
Compounds 1, 2, 5, 6, and 7 were screened at different concentrations using 400 μM of p-nitrophenyl thymidine monophosphate (p-Nph-5´-TMP) as substrate to study potential inhibition of NPP3 and NPP5 using a colorimetric assay as previously described ([21]). Soluble and purified human NPP3, prepared as previously described ([22]), and human NPP5 ([23]) were diluted in the assay buffer (50 mM TRIS HCl, 2 mM CaCl2, and 0.2 mM ZnCl2, pH 9.00), and 0.09 µg of NPP3, or 0.4 µg of NPP5 were employed. The mixtures were incubated for 30 min at 37°C in case of NPP3, and for 100 min at 37°C in case of NPP5, and the reactions were subsequently terminated by adding 20 μL of 1.0 N aq. NaOH solution. The assay is based on the enzymatic ester hydrolysis of p-Nph-5’-TMP which results in the formation of the yellow p-nitrophenolate anion. The absorption was measured at 400 nm using a BMG PheraStar FS plate reader (BMG Labtech GmbH, Ortenberg, Germany). Each analysis was repeated three times with triplicate measurements.

The subject of assay [2] is U87 human glioblastoma cells. The assay is described as follows: U87 cell-based assay, extracellular adenosine formation from ATP (CE-UV). The note with it: U-87 MG, 300 µM ATP, 3 h, DP and EHNA, 10 µg/mL (~ 6 µM). How it is done: U87 human glioblastoma cells were grown in cell culture flasks until reaching a fully covered confluent cell layer. Cells were cultivated at 37°C and 5% CO2 in DMEM with additions of 10% FCS, 1% penicillin/streptomycin and 1% L-glutamine. The cells were rinsed with phosphate-buffered saline (PBS) and detached with EDTA. Thereafter, they were counted by a Cell Counter CASY® 1 Model TT (Schärfe System GmbH, Reutlingen, Germany) to retrieve the number of viable cells, and washed three times with PBS before they were resuspended in Krebs-HEPES buffer at a concentration of 10^6 cells/mL ([37]). Then, 1 mL of cell suspension was transferred into a 24-well plate. The cells were pretreated with the nucleoside transport inhibitor dipyridamole (20 µM) for 30 min ([38]). Adenosine deaminase (ADA) activity was inhibited by the addition of 1 µM of the inhibitor EHNA (erythro-9-amino-β-hexyl-α-methyl-9H-purine-9-ethanol hydrochloride) ([39]). Heparins, their non-anticoagulative analogs, and the known ectonucleotidase inhibitor PSB-POM-141 ([20]) were added. The samples were incubated with 300 µM of ATP for 3 h at 37°C and 5% CO2. […]
The percentage of inhibition of adenosine format ion in U87 cell supernatants by heparin derivatives was calculated from the conversion rate as follows: […]

Molecules are shown by their SMILES.

For the compound `CO[C@H]1O[C@H](COS(=O)(=O)O)[C@@H](O[C@@H]2O[C@@H](C(=O)O)[C@@H](O[C@H]3O[C@H](COS(=O)(=O)O)[C@@H](O[C@@H]4O[C@H](C(=O)O)[C@@H](O[C@H]5O[C@H](COS(=O)(=O)O)[C@@H](O)[C@H](O)[C@H]5NS(=O)(=O)O)[C@H](O)[C@H]4O)[C@H](OS(=O)(=O)O)[C@H]3NS(=O)(=O)O)[C@H](O)[C@H]2OS(=O)(=O)O)[C@H](O)[C@H]1NS(=O)(=O)O` [Compound 6, Fondaparinux], the “NPP3 inhibition, selectivity study” value in assay [1] is on record as “no effect”. Also, in assay [2], the inhibition – broadly, the change of the read-out against control, counted positive when it falls – at 10 µg/mL amounted to 60%.

Values taken from article PMC10497752, “Heparins are potent inhibitors of ectonucleotide pyrophosphatase/phospho-diesterase-1 (NPP1) – a promising target for the immunotherapy of cancer” (Frontiers in Immunology, 2023).
